ChEMBL document CHEMBL3826872, “Synthesis of benzimidazole based thiadiazole and carbohydrazide conjugates as glycogen synthase kinase-3β inhibitors with anti-depressant activity” (Bioorg Med Chem Lett, 2016)
Activity calls are given as the source filed them. The calls are words filed in the database; no cut-off is given here.

Columns and labels:
[1] = molecular target: Glycogen synthase kinase-3 beta (Homo sapiens, UniProt P49841); assay: Inhibition of recombinant human N-terminal His-tagged GSK-3beta expressed in Escherichia coli using glycogen synthase-2 as substrate and ATP measured after 30 mins by Kinase-Glo luminescent kinase assay
[2] = test system: Mus musculus; assay: Antidepressant activity in Swiss albino mouse assessed as duration of immobility at 50 mg/kg, po dosed 1 hr before test measured after 6 mins by tail suspension test (reference value: 183 sec)
[3] = test system: Mus musculus; assay: Antidepressant activity in Swiss albino mouse assessed as reduction in duration of immobility at 50 mg/kg, po dosed 1 hr before test measured after 6 mins by forced swim test relative to control; assay type: functional, organism-based

Chain of Glycogen synthase kinase-3 beta (P49841 whole entry): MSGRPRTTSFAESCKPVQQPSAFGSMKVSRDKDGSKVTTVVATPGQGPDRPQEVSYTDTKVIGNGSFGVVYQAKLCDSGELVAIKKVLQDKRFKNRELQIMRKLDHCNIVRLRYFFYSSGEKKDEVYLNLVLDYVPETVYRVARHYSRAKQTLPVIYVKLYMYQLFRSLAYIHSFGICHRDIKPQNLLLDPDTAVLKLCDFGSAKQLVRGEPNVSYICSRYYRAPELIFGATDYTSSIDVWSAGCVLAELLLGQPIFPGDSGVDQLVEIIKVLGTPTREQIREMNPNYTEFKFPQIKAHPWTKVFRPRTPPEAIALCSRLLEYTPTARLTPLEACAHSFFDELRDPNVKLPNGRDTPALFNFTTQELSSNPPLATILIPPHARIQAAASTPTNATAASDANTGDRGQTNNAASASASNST

Compound	IC50 [1]	Time [2]	Activity [3]
Cc1nc2ccccc2n1Cc1nnc(Nc2ccc(Cl)cc2)s1	145 nM		
Cc1nc2ccccc2n1Cc1nnc(Nc2ccccc2)s1	157 nM		
Cc1nc2ccccc2n1CC(=O)NNC(=O)c1c[nH]c2ccccc12	148 nM		
Cc1nc2ccccc2n1Cc1nnc(Nc2ccc([N+](=O)[O-])cc2)s1	107 nM	174 s	
Cc1nc2ccccc2n1CC(=O)NNC(=O)C(=O)c1c[nH]c2ccccc12	72 nM	105 s	Active
Cc1nc2ccccc2n1CC(=O)NNC(=O)CCC(=O)c1ccc(Oc2ccccc2)cc1	80 nM	135 s	Active
Cc1nc2ccccc2n1Cc1nnc(Nc2ccc(F)cc2)s1	134 nM		
Cc1nc2ccccc2n1Cc1nnc(Nc2ccc(Br)cc2)s1	173 nM		
COc1ccccc1Nc1nnc(Cn2c(C)nc3ccccc32)s1	184 nM		
CCOc1ccc(Nc2nnc(Cn3c(C)nc4ccccc43)s2)cc1	293 nM		
Cc1nc2ccccc2n1CC(=O)NNC(=O)Cc1cc2ccccc2[nH]1	135 nM		
Cc1nc2ccccc2n1CC(=O)NNC(=O)Cc1ccc([N+](=O)[O-])cc1	205 nM		
CCCCNc1nnc(Cn2c(C)nc3ccccc32)s1	582 nM		
COc1ccc(CC(=O)NNC(=O)Cn2c(C)nc3ccccc32)cc1	379 nM		
Cc1nc2ccccc2n1Cc1nnc(Nc2ccccc2Cl)s1	122 nM		
Cc1ccccc1CC(=O)NNC(=O)Cn1c(C)nc2ccccc21	92 nM	168 s	
Cc1nc2ccccc2n1Cc1nnc(Nc2ccccc2F)s1	76 nM	120 s	Active
Cc1nc2ccccc2n1CC(=O)NNC(=O)c1ccc[nH]1	124 nM		
CNCCC(Oc1ccc(C(F)(F)F)cc1)c1ccccc1 (centres undefined) [FLUOXETINE]		153 s	
COc1ccc(Nc2nnc(Cn3c(C)nc4ccccc43)s2)cc1	151 nM		
Cc1nc2ccccc2n1Cc1nnc(Nc2ccccc2Br)s1	190 nM		
Cc1nc2ccccc2n1Cc1nnc(NC2CCCCC2)s1	406 nM		
Cc1nc2ccccc2n1CC(=O)NNC(=O)Cc1ccccc1	105 nM		
Cc1nc2ccccc2n1CC(=O)NNC(=O)Cc1ccc(Cl)cc1	131 nM		
Cc1nc2ccccc2n1CC(=O)NNC(=O)Cc1cccc2ccccc12	157 nM		
COc1ccc(C(=O)CCC(=O)NNC(=O)Cn2c(C)nc3ccccc32)cc1	561 nM		
